Experimental data reported in patent publication US20080279936A1, “Estradiol metabolites for reduction of endothelin production” (The University of Pittsburgh, priority 2001, published 2008).
Like-named read-outs stand apart in the source and are kept apart here.

Key:
[1] = tested on: mitogen-activated protein kinase (MAPK) activity in PCAECs; test: FCS-induced MAPK activity in PCAECs; format: cell-based, porcine
Description: Hearts from female pigs were obtained from a local slaughter house and placed in ice-cold oxygenated DMEM (Gibco, Rockville, Md. now Invitrogen, Carlsbad Calif., hereinafter “Gibco”) containing antibiotics (Gibco). The epicardial coronary arteries were isolated, and the fat and connective tissue were removed. Endothelial cells were isolated by collagenase/dispase digestion (Ohbayashi, A., et al., Biochem. Brophys. Res. Commun. 202:504 (1994), the disclosure of which is incorporated herein be reference (“Ohbayashi, et al.”)). […] The purity of the cultures, which was characterized by immunostaining with factor VIII antigen (Sigma, St. Louis, Mo.) and by assaying the preferential uptake of the fluorescent probe Dil-acetylated low density lipoprotein (Biomedical Technologies, Inc., Stoughton, Mass.), (Ohbayashi, et al.) was 98%. Cells were passaged by trypsinization, and cells in second and third passage were used for all experiments in this example. […] Some cells were pretreated for 1 hour with ICI182780 before treatment with the test agents. After stimulation, the cells were washed with ice-cold PBS and extraction buffer (50 mmol/L β-glycerophosphate, 1.5 mmol/L EGTA, 1 mmol/L dithiothreitol, 100 μmol/L Na3VO4, 10 μg/mL aprotinin, 5 μg/mL pepstatin, […] leupeptin, and 1 mmol/L benzamidine) (all from Sigma), scraped off the plates, and sonicated for 20 seconds in 0.5 mL of extraction buffer. The extracts were collected, the cytosolic fractions were separated by centrifuging the extracts at 100,000×g for 20 minutes at 4° C., and the supernatants were diluted to a concentration of 1 mg protein/mL and stored at -70° C. for mitogen-activated protein kinase (“MAPK”) activity assays. The MAPK activity in the cytosolic extracts was quantified as described by Dubey, R. K., et al., Arterioscler. Thromb. Vasc. Biol. 20:964 (2000), the disclosure of which is incorporated herein by reference.

[2] = tested on: endothelin-1 (ET-1) synthesis in porcine coronary artery endothelial cells (PCAECs); test: Basal ET-1 release into the medium by PCAECs (ELISA); format: cell-based; details: for effect on basal ET secretion: 2 nmol/L, PCAECs incubated 4, 8, 12 and 24 hours
Description: (§1) Hearts from female pigs were obtained from a local slaughter house and placed in ice-cold oxygenated DMEM (Gibco, Rockville, Md. now Invitrogen, Carlsbad Calif., hereinafter “Gibco”) containing antibiotics (Gibco). The epicardial coronary arteries were isolated, and the fat and connective tissue were removed. Endothelial cells were isolated by collagenase/dispase digestion (Ohbayashi, A., et al., Biochem. Brophys. Res. Commun. 202:504 (1994), the disclosure of which is incorporated herein be reference (“Ohbayashi, et al.”)). The isolated cells were washed in DMEM/F12 medium (Gibco) supplemented with 10% fetal calf serum (“FCS”) (HyClone Laboratories, Logan, Utah) and endothelial cell growth supplement (Clonetics, Walkersville, Md.), and cells were grown to confluence under standard tissue culture conditions. The purity of the cultures, which was characterized by immunostaining with factor VIII antigen (Sigma, St. Louis, Mo.) and by assaying the preferential uptake of the fluorescent probe Dil-acetylated low density lipoprotein (Biomedical Technologies, Inc., Stoughton, Mass.), (Ohbayashi, et al.) was 98%. Cells were passaged by trypsinization, and cells in second and third passage were used for all experiments in this example.
(§2) To study the effects of estradiol and its metabolites on ET-1 synthesis in porcine coronary artery endothelial cells (“PCAECs”) (Gibco), confluent monolayers of PCAECs were washed twice with HBSS (Gibco) and treated with DMEM/F12 (gibco) supplemented with 0.4% bovine serum albumin (BSA) containing or lacking 0.001 to 1 μmol/L of estradiol, 2-hydroxyestradiol, or 2-methoxyestradiol (Steraloids, Newport, R.I.). […] The supernatants were collected for ET-1 analysis, and the samples were frozen at −70° C. until analyzed. ET-1 levels were measured with the BIOTRAK™ (Amersham Pharmacia Biotech Europe Gmbh, Dubendorf, Switzerland) high-sensitivity endothelin-1 human ELISA system.
To analyze the effects of estradiol and its metabolites on the basal synthesis of ET-1, cells were pretreated with or without the various above-listed agents and with and without ICI182780 for 24 hours and were fed fresh DMEM/F12 supplemented with 0.4%; BSA (Sigma) and the respective treatments. The supernatants were collected after 4, 8, 12, and 24 hours and the ET-1 levels were analyzed.

[3] = tested on: endothelin-1 (ET-1) synthesis in porcine coronary artery endothelial cells (PCAECs); test: Stimulated (FCS, angiotensin II, thrombin, TNFα) ET-1 release into the medium by PCAECs (ELISA); format: cell-based; design: induction of ET-1 secretion (percentage increase vs vehicle-treated controls): dose or concentration left out as unconfirmed; details: for inhibition of FCS-induced ET-1 secretion / inhibition of TNFα-induced ET-1 secretion / inhibition of angiotensin II-induced ET-1 secretion / inhibition of thrombin-induced ET-1 secretion / inhibition at 0.001 µM: 1 nmol/L; for reversal by ICI182780 of the compound's inhibitory effect on FCS-stimulated ET-1 secretion: ICI182780 50 μmol/L; for effectiveness in inhibiting basal and stimulated ET-1 secretion compared with estradiol: order of potency 2-methoxyestradiol>2-hydroxyestradiol>estradiol; for effect on FCS-induced ET-1 synthesis: 10 nmol/L; for inhibition at 0.001 µM: Sus scrofa, Endothelial cell; for induction of ET-1 secretion (percentage increase vs vehicle-treated controls): stimulus alone
Description: as §1, §2
Cells were also treated as above in the presence and absence of the estradiol receptor (“ER”) antagonist, ICI182780 (50 μmol/L; Tocris Cookson Ltd, Ballwin, Mo.). To analyze whether the inhibitory effects of estradiol were mediated by means of ER-β, the effects of genistein (0.001 to 10 μmol/L) (Sigma) were investigated. To evaluate whether the effects of estradiol were mimicked by various clinically used estrogens, the cells were treated as above, in the presence and absence of ICI182780, with 10 nmol/L of estradiol valerate, estradiol cypionate, estradiol benzoate, 17α-estradiol, estrone, estriol or estrone sulfate (all from Sigma), and the ET-1 synthesis in response to FCS (2.5%) was analyzed.

[4] = 1 nmol/L, pretreated 24 hours, FCS 2.5%
[5] = angiotensin II 100 nmol/L, 4 hours

C[C@]12CC[C@@H]3c4cc(O)c(O)cc4CC[C@H]3[C@@H]1CC[C@@H]2O [2-hydroxyestradiol, estra-1,3,5 (10)-triene-2,3,17-triol (17β)]
inhibition of FCS-induced MAPK activity [1, 4]: 34±4% | potency in inhibiting FCS-induced MAPK activity compared with estradiol ([1]; pretreated 24 hours, FCS 2.5%): more potent | effect on basal ET secretion [2]: inhibited | inhibition of FCS-induced ET-1 secretion ([3]; FCS 2.5%, 4 hours): 31% | inhibition of TNFα-induced ET-1 secretion ([3]; TNFα 10 ng/mL, 4 hours): 35% | inhibition of angiotensin II-induced ET-1 secretion [3, 5]: 33% | inhibition of thrombin-induced ET-1 secretion ([3]; thrombin 4 U/mL, 4 hours): 40% | reversal by ICI182780 of the compound's inhibitory effect on FCS-stimulated ET-1 secretion ([3]; FCS 2.5%, 4 hours): not | effectiveness in inhibiting basal and stimulated ET-1 secretion compared with estradiol [3]: more effective

COc1cc2c(cc1O)CC[C@@H]1[C@@H]2CC[C@]2(C)[C@@H](O)CC[C@@H]12 [2-methoxyestradiol, estra-1,3,5 (10)-triene-2-methoxy-3,17-diol (17β)]
inhibition of FCS-induced MAPK activity [1, 4]: 46±4.7% | potency in inhibiting FCS-induced MAPK activity compared with estradiol ([1]; pretreated 24 hours, FCS 2.5%): more potent | effect on basal ET secretion [2]: inhibited | inhibition of FCS-induced ET-1 secretion ([3]; FCS 2.5%, 4 hours): 44% | inhibition of TNFα-induced ET-1 secretion ([3]; TNFα 10 ng/mL, 4 hours): 56% | inhibition of angiotensin II-induced ET-1 secretion [3, 5]: 39% | inhibition of thrombin-induced ET-1 secretion ([3]; thrombin 4 U/mL, 4 hours): 46% | reversal by ICI182780 of the compound's inhibitory effect on FCS-stimulated ET-1 secretion ([3]; FCS 2.5%, 4 hours): not | effectiveness in inhibiting basal and stimulated ET-1 secretion compared with estradiol [3]: more effective

C[C@]12CC[C@@H]3c4ccc(O)cc4CC[C@H]3[C@@H]1CC[C@H]2O [17α-estradiol]
effect on FCS-induced ET-1 synthesis ([3]; FCS 2.5%, 4 hours): unable to lower ET-1 secretion

O=c1c(-c2ccc(O)cc2)coc2cc(O)cc(O)c12 [Genistein, genistein]
concentrations at which inhibitory effects on ET-1 secretion were observed ([3]; FCS 2.5%-stimulated, 4 hours, tested 0.001 to 10 μmol/L): ≥ 1 µmol/L | reversal by ICI182780 of the compound's inhibitory effect on FCS-stimulated ET-1 secretion ([3]; FCS 2.5%, 4 hours): not reversed

C[C@]12CC[C@@H]3c4ccc(O)cc4C[C@@H](CCCCCCCCC[S+]([O-])CCCC(F)(F)C(F)(F)F)[C@H]3[C@@H]1CC[C@@H]2O (some centres unmarked) [ICI182780]
effect of compound alone on basal or FCS-stimulated ET-1 synthesis ([3]; 50 μmol/L): did not influence

COc1cccc(-c2cc(=O)c3ccccc3o2)c1N [PD98059]
MAPK activity ([1]; growth-arrested cells, FCS 2.5% for 10 minutes, unstimulated 0.187, PD98059 at 10 μmol/L): 0.7 μmol/min/mg protein

C[C@]12CC[C@@H]3c4ccc(OC(=O)c5ccccc5)cc4CC[C@H]3[C@@H]1CC[C@@H]2O [estradiol benzoate]
effect on FCS-induced ET-1 synthesis ([3]; FCS 2.5%, 4 hours): inhibited | reversal by ICI182780 of the compound's inhibitory effect on FCS-stimulated ET-1 secretion ([3]; FCS 2.5%, 4 hours): reversed

C[C@]12CC[C@@H]3c4ccc(O)cc4CC[C@H]3[C@@H]1CC[C@@H]2OC(=O)CCC1CCCC1 [estradiol cypionate]
effect on FCS-induced ET-1 synthesis ([3]; FCS 2.5%, 4 hours): inhibited | reversal by ICI182780 of the compound's inhibitory effect on FCS-stimulated ET-1 secretion ([3]; FCS 2.5%, 4 hours): reversed

CCCCC(=O)O[C@H]1CC[C@H]2[C@@H]3CCc4cc(O)ccc4[C@H]3CC[C@]12C [estradiol valerate]
effect on FCS-induced ET-1 synthesis ([3]; FCS 2.5%, 4 hours): inhibited | reversal by ICI182780 of the compound's inhibitory effect on FCS-stimulated ET-1 secretion ([3]; FCS 2.5%, 4 hours): reversed

C[C@]12CC[C@@H]3c4ccc(O)cc4CC[C@H]3[C@@H]1CC[C@@H]2O [estradiol, 17β-estradiol]
reversal by ICI182780 of the compound's inhibitory effect on FCS-induced MAPK activity ([1]; ICI182780 50 μmol/L pretreatment, compound 10 nmol/L): completely reversed | inhibition at 0.001 µM ([1]; Sus scrofa, 1 nmol/L, pretreated 24 hours, FCS 2.5%): 19 ± 2.6% | effect on basal ET secretion [2]: inhibited | inhibition at 0.002 µM ([2]; Sus scrofa, Endothelial cell, 8 h, read-out: inhibition of basal synthesis of ET-1): 19 ± 2% | ET-1 secretion induced in response to FCS (percentage increase) in presence of compound ([3]; 1 nmol/L compound, FCS 2.5%, 4 hours, control 138±16%): 82±8% | ET-1 secretion induced in response to TNFα (percentage increase) in presence of compound ([3]; 1 nmol/L compound, TNFα 10 ng/mL, 4 hours, control 120±8%): 68±5% | ET-1 secretion induced in response to angiotensin II (percentage increase) in presence of compound ([3]; 1 nmol/L compound, angiotensin II 100 nmol/L, 4 hours, control 116±7%): 73±6% | ET-1 secretion induced in response to thrombin (percentage increase) in presence of compound ([3]; 1 nmol/L compound, thrombin 4 U/mL, 4 hours, control 98±6%): 53±4% | reversal by ICI182780 of the compound's inhibitory effect on FCS-stimulated ET-1 secretion ([3]; FCS 2.5%, 4 hours): completely blocked | inhibition at 0.001 µM ([3]; FCS 2.5%, 4 hours, read-out: inhibition of FCS-induced ET-1 secretion): 22% | inhibition at 0.001 µM ([3]; TNFα 10 ng/mL, 4 hours, read-out: inhibition of TNFα-induced ET-1 secretion): 26% | inhibition at 0.001 µM ([3]; angiotensin II 100 nmol/L, 4 hours, read-out: inhibition of angiotensin II-induced ET-1 secretion): 20% | inhibition at 0.001 µM ([3]; thrombin 4 U/mL, 4 hours, read-out: inhibition of thrombin-induced ET-1 secretion): 24%

C[C@]12CC[C@@H]3c4ccc(O)cc4CC[C@H]3[C@@H]1C[C@@H](O)[C@@H]2O [estriol]
effect on FCS-induced ET-1 synthesis ([3]; FCS 2.5%, 4 hours): unable to lower ET-1 secretion

TNFα
induction of ET-1 secretion (percentage increase vs vehicle-treated controls) ([3]; 4 hours): 120±8%

angiotensin II [stimulatory agent for ET-1 secretion]
induction of ET-1 secretion (percentage increase vs vehicle-treated controls) ([3]; 4 hours): 116±7%

estrone sulfate
effect on FCS-induced ET-1 synthesis ([3]; FCS 2.5%, 4 hours): unable to lower ET-1 secretion

thrombin
induction of ET-1 secretion (percentage increase vs vehicle-treated controls) ([3]; 4 hours): 98±5%
